From patent US20240262835A1, “PRMT5 INHIBITING COMPOUNDS AND USES THEREOF” (ANTENGENE DISCOVERY LIMITED, priority 2023, published 2024) come the findings set out here.

Molecules are shown by their SMILES. Like-named read-outs stand apart in the source and are kept apart here. Where only a bound is given, the exact number is not on record here.

One data set addresses PRMT5/MEP50 (Homo sapiens (Human), UniProt O14744). As to the kind of experiment: MTase-Glo methyl transferase assay (PRMT5 inhibition). Type of data set: biochemical. The settings on record: 50 nM PRMT5/MEP50, 25 μM SAM, 5 μM Histone H4 peptide (1-21), read-out: IC50 for PRMT5 inhibiting. As for the experimental part: The PRMT5 inhibitory activity of test compounds was determined using the MTase-Glo™ assay (Promega), which monitors the product (S-adenosyl homocysteine or SAH) of methyltransferase reactions. The PRMT5 MTase-Glo assays were conducted in a 384-well white ProxiPlate (PerkinElmer, catalog no.: 6008280) in a total volume of 12 μL. The PRMT5 enzymatic reaction (in 4 μL) contained 50 nM PRMT5/MEP50 (Reaction Biology Corp, catalog no.: HMT-22-148), 25 μM S-adenosyl methionine (SAM, Promega), 5 μM Histone H4 peptide (1-21) (BPS Bioscience, catalog no.: 52018-2) and five-fold serially diluted compounds in a reaction buffer of 50 mM Tris (pH 8.0), 50 mM NaCl, 0.01% Tween 20, 0.01% BSA, and 1 mM DTT. The test compounds were pre-incubated with PRMT5/MEP50 and Histone H4 peptide for 20 minutes at room temperature before the addition of SAM to initiate the PRMT5 reaction. The reaction was allowed to proceed for 1 hour at 37° C. and was terminated by 2 μL of 3× MTase-Glo™ Reagent (Promega) and 150 μM EPZ015666 (Selleck, catalog no.: 1616391-65-1). After a 30-minute incubation at room temperature, 6 μL of MTase-Glo™ Detection Solution (Promega) was added and the plate was incubated at room temperature for an additional 30 minutes. The light signal corresponding to the amount of SAH produced by the PRMT5 reaction was subsequently measured using an Envision multimode reader (PerkinElmer). IC50 and Ki values were obtained by analyzing dose-response curves using GraphPad Prism.

In data set [1] the test system is HCT116 parental (wild type) cells. In words: HCT116 cell proliferation assay (CTG), parental cells. Type of data set: cell-based, human. Conditions: Cell Titer-Glo. Here is the method: (§1) Control samples were analyzed in parallel.
(§2) On Day 0, 150 HCT116 parental or HCT116 homozygous MTAP knockout cells were seeded in 96-well plates in McCoy's 5A medium containing 10% fetal bovine serum and pen/strep. And the cells were incubated overnight at 37° C. and 5% CO2.
(§3) On Day 1, cells were treated with 9-point serial dilution of compound, using a top concentration of 50 μM, 1:5 serial dilution steps and, a DMSO-only control. And cells were incubated for 6 days.
(§4) On Day 7, cell viability was measured using a CTG assay Kit (Cell Titer-Glo; Promega, catalog no.: G7573) in accordance with the manufacturer's instructions. Assays plates were read on a EnVision™ Multilabel Reader using the Ultra-Sensitive luminescence model. The data were analyzed by GraphPad Prism 5.0 software, and the dose-effect curve was obtained by fitting the data using nonlinear S-curve regression, from which the IC50 value was calculated.

Another data set has as its target PRMT5/MEP50 complex (Homo sapiens (Human), UniProt O14744). As to the kind of experiment: PRMT5/MEP50 HotSpot methyltransferase assay (with 100 nM MTA). The data set is classed as biochemical. The settings on record: histone H2A substrate, 1 μM 3H-SAM. As for the experimental part:
The assay used recombinant full-length histone H2A as the substrate of PRMT5. Enzymatic transfer of the tritiated methyl group from S-adenosyl-L-[methyl-3H]methionine (3H-SAM) to the histone H2A protein generated a radiolabeled histone H2A by measuring in a scintillation counter to determine the activity of PRMT5 enzyme in the presence and absence of compound. The assay reactions were conducted in the presence of 100 nM MTA. Briefly, compounds were solubilized in 100% DMSO at the highest concentration of 10 mM. […] Control samples lacking compound, PRTM5/MEP50 complex or various reaction components also were prepared and processed in parallel with compound test samples. SAH was used as a positive control for assay validation. To measure PRMT5 inhibitory activity, 1 nM PRTM5/MEP50 complex was preincubated with test compound in assay buffer containing 5 μM full-length histone H2A for 15 minutes at room temperature. The enzymatic reaction was initiated by adding 1 μM 3H-SAM (final concentration) and the mixture was incubated at 30° C. for 1 hour. The reaction was stopped and transferred to filter paper for detection. The amount of tritiated H2A in each sample was determined using a scintillation counter. The IC50 value for each compound was calculated from each 10-point dose-response curve for samples using GraphPad Prism software.

Data set [2] deals with HCT116 homozygous MTAP knockout cells. In words: HCT116 cell proliferation assay (CTG), MTAP knockout cells. Type of data set: cell-based, human. Conditions: Cell Titer-Glo. As for the experimental part: as §1, §2, §3, §4
The nature of data set [3]: In vivo pharmacokinetics assay in mice via IV and PO. Also on record: species or system ICR mice. The settings on record: for Cmax: read-out: Cmax; for AUC0-t: read-out: AUC0-t. As for the experimental part: Pharmacokinetics assay for test compounds was performed in mice via IV and PO.
Test compound solution was prepared on the day of administration.
Solvent: IV+PO: 5% DMSO+10% Soultol+85% H2O or saline
Species: ICR mice; SPF level.
Source: Beijing Vital River Laboratory Animal Technology Co., Ltd.
Animal selection: Males. No random grouping
Weighed before dosing, calculated dosage according to body weight. For Groups 1-3, the drug was administered intravenously or intragastrically. For Group 4, the drug administered intragastrically.
For Groups 1-3, at 0.083 h, 0.25 h, 0.5 h, 1 h, 2 h, 4 h, 6 h, 8 h, 24 h, after administration. For Group 4, at 2 h and 4 h after administration.
Blood was collected through the cheeks. For each sample, about 0.05 mL of blood was collected and was added heparin sodium or EDTA-2K as anticoagulant, and was placed on wet ice.
The blood samples were collected and placed on ice and was centrifuged within 1 hour (centrifugation: 6000 g, 3 minutes, 2-8° C.) to separate plasma. Plasma samples were stored in a −80° C. refrigerator prior to analysis.
The pharmacokinetic parameters were calculated using Phoenix WinNonlin8.2.0 based on the blood concentration data at different time points, and AUC0-t, AUC0-∞, MRT0-∞, Cmax, Tmax, and T1/2 and mean values and standard deviations thereof were provided.

A short description of data set [4]: in vitro. The settings on record: human, microsomes.
Data set [5] addresses hERG potassium ion channel (Homo sapiens (Human), UniProt Q12809). As to the kind of experiment: hERG potassium ion channel inhibition assay (automated patch-clamp, CHO-hERG cells). The settings on record: Qpatch, highest test concentration 40.00 μM. The data set is classed as cell-based. Here is the method:
Drug-hERG interaction was measured by automated patch-clamp methods, with cisapride as positive control.
1.1 CHO-hERG cells were cultured in 175 cm^2 culture bottle. After the cell density grew to 60-80%, the culture medium was removed, washed with 7 mL of phosphate buffered saline (PBS), and then digested with 3 mL Detachin.
1.2 After the digestion was complete, 7 mL culture solution was added for neutralization, and then centrifuged, the clear solution was sucked, and 5 mL culture solution was added for re-suspension to ensure the cell density was 2˜5×10^6/mL.
The process of single-cell high-impedance sealing and whole-cell pattern formation was all automatically completed by Qpatch instrument. After obtaining whole-cell recording mode, the cell was pinching at −80 millivolts. Before giving a 5-second +40 millivolt depolarization stimulus, a 50-millisecond pre-voltage of −50 millivolts was given first, and then repolarized to −50 millivolts for 5 seconds. Go back to −80 millivolts. This voltage stimulation was applied every 15 seconds, recorded for 2 minutes, then extracellular fluid was given and recorded for 5 minutes, and then the administration process began. The concentration of test compound was given from the lowest test concentration for 2.5 minutes per test concentration. After continuous administration of all concentrations, the positive control 3 μM cisapride was given. At least 2 cells were tested for each concentration (n≥2).
4.1 The compound mother liquor was diluted with DMSO, and 10 μL compound stock solution was added to 20 μL DMSO solution, which was continuously 3-fold diluted to 6 DMSO-concentrations.
4.2 4 μL of test compounds in 6 DMSO-concentrations were added to 396 μL extracellular solution and were 100-fold diluted to 6 intermediate concentrations. Then, 80 μL of test compounds in 6 intermediate concentrations were added to 320 μL extracellular solution and were 5-fold diluted to the final concentration to be tested.
4.3 The highest test concentration was 40.00 μM, and six test concentrations were 40.00, 13.33, 4.44, 1.48, 0.49, 0.16 μM, respectively.
4.5 Entire dilution process for test compound preparation was performed by Bravo instrument.
The experimental data were analyzed by GraphPad Prism 5.0 software.

A short description of data set [6]: Liver microsome metabolic stability (LMS) assay, mouse.
For data set [7] the following is noted: human, microsomes.
Data set [8] in a line: Liver microsome metabolic stability (LMS) assay, human. Conditions: human, microsomes.
The nature of data set [9]: in vitro. Conditions: dog, microsomes.
The conditions of data set [10]: rat, microsomes, 1 μM.
The nature of data set [11]: in vitro. Conditions: cynomolgus monkey, microsomes.
Setting [12] is: Homo sapiens, HCT-116, 6 days treatment.
Setting [13] is: male, ICR, mouse, plasma, PO 30 mg/kg.
Where [14] appears, read: male, ICR, mouse, plasma, PO 50 mg/kg.

Sequence of PRMT5/MEP50 complex (O14744 whole entry, species assumed): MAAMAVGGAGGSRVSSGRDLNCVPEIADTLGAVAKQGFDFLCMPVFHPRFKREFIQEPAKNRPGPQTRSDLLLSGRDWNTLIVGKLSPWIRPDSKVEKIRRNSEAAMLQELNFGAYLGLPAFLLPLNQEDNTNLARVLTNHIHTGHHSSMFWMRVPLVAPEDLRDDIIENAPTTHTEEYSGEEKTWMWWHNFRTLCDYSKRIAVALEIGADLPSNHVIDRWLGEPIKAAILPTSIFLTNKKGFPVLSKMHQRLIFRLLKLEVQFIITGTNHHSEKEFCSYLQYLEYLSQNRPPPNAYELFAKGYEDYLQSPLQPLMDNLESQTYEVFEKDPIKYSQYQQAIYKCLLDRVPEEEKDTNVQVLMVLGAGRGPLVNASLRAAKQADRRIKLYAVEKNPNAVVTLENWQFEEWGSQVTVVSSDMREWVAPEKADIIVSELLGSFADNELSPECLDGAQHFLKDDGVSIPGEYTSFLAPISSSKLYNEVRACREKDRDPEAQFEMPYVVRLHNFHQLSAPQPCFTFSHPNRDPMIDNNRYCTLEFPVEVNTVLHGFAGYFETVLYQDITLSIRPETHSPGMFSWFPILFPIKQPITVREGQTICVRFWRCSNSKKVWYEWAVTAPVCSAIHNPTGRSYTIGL
Sequence of PRMT5/MEP50 complex (Q9BQA1 whole entry partner, species assumed): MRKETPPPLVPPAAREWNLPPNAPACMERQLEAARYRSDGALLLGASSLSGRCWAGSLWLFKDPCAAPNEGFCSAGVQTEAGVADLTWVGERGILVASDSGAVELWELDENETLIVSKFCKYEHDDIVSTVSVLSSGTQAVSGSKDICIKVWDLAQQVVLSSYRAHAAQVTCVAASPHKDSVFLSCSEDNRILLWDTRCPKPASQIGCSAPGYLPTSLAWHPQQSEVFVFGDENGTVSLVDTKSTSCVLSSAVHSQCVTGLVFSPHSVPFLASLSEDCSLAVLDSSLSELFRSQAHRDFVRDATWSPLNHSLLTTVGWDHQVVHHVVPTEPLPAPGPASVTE
Sequence of PRMT5/MEP50 (O14744 whole entry): as the sequence (O14744 whole entry, species assumed) above
Sequence of PRMT5/MEP50 (Q9BQA1 whole entry partner): as the sequence (Q9BQA1 whole entry partner, species assumed) above
Sequence of hERG potassium ion channel (Q12809 whole entry): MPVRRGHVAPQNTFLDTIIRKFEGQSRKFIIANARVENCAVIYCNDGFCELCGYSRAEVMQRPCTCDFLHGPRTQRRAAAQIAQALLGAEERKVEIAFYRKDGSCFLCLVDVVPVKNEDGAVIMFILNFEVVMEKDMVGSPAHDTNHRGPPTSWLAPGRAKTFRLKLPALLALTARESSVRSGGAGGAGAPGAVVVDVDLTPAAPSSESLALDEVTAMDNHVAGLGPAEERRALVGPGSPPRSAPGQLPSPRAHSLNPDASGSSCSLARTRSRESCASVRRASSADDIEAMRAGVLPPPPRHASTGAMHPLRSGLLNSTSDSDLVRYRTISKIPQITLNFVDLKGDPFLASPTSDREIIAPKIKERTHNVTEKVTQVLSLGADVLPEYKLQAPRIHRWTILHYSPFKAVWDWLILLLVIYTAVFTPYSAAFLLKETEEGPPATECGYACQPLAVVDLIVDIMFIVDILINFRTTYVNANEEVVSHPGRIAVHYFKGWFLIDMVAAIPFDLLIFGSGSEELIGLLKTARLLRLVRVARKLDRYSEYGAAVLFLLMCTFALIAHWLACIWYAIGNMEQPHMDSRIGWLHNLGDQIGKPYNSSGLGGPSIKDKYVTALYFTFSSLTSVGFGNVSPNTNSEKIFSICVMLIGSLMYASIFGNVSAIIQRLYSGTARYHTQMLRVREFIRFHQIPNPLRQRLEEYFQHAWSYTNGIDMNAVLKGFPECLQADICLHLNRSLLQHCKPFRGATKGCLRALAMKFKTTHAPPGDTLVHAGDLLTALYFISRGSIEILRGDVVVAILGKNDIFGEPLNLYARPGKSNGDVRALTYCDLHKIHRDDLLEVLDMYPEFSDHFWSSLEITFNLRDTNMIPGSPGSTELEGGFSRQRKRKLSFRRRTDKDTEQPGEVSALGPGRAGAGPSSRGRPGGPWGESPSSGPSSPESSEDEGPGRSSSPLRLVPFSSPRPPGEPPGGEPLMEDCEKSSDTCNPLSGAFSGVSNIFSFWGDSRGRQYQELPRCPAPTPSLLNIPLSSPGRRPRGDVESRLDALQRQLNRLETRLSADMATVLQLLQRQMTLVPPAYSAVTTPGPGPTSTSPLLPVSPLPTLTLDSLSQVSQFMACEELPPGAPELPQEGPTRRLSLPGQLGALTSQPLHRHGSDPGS

As to `Cc1ncc2c(N)nc3ccc(C(=O)N(Cc4ccc(C(F)(F)F)cn4)[C@H](C)c4ncccn4)cc3n12` [Compound 7], the IC50 on PRMT5/MEP50 turned out to be 0.091 µM; in data set [1] (6 days treatment), 0.961 µM; against PRMT5/MEP50 complex it was 0.091 µM; in data set [2] (6 days treatment), 0.077 µM.
Regarding `Cc1ncn2c1c(N)nc1ccc(C(=O)N(Cc3ccc(C(F)(F)F)cn3)[C@H](C)c3ncccn3)cc12` [Compound 8], the IC50 is 0.104 µM at PRMT5/MEP50, 0.146 µM in data set [1] (6 days treatment), 0.198 µM against PRMT5/MEP50 complex and 0.097 µM in data set [2] (6 days treatment).
The corresponding values for `Cc1nc(C)n2c1c(N)nc1ccc(C(=O)N(Cc3ccc(C(F)(F)F)cn3)[C@H](C)c3ncccn3)cc12` [Compound 9] are 0.101 µM, 1.16 µM, 0.321 µM and 0.072 µM.
With `CN(C(=O)c1cc2c(cn1)nc(N)c1cncn12)[C@@H]1COc2cc(C(F)(F)F)ccc21` [Compound 14], the IC50 on PRMT5/MEP50 came out at 0.047 µM; in [1] (setting [12]) it was 6.27 µM; in data set [2] (setting [12]), 0.07 µM; in data set [5], 17.9 µM. The C8 h amounted to 3833 ng/mL in [3] (PO 30 mg/kg, plasma) and 6927 ng/mL in data set [3] (PO 50 mg/kg, plasma). For the same compound, the C24 h in data set [3] (PO 30 mg/kg, plasma) is 574 ng/mL; in data set [3] (PO 50 mg/kg, plasma), 615 ng/mL. Further, the Cmax was 7500 ng/mL in [3] (male, ICR, mouse, PO 30 mg/kg, plasma) and 9920 ng/mL in data set [3] (male, ICR, mouse, PO 50 mg/kg, plasma). Moreover, the clearance in data set [3] (male, ICR, mouse, plasma, IV 1.0 mg/kg) turned out to be 7.62 mL/min/kg. The half-life was 5.96 h in [3] (setting [13]) and 5 h in data set [3] (setting [14]). The AUC0-t in [3] (setting [13]) was 81.1 µg·h/mL; in data set [3] (setting [14]) it was 123 µg·h/mL. The half-life at 1 μM in “in vitro [4]” is greater than 2.42 h; in data set [6] (mouse, liver microsomes) it was 2.2 h.
For `CN(C(=O)c1cc2c(cn1)nc(N)c1cncn12)[C@@H]1CC(F)(F)c2cc(C(F)(F)F)ccc21` [Compound 26], the IC50 on PRMT5/MEP50 was 0.034 µM; in [1] (6 days treatment), 6.59 µM; in data set [2] (6 days treatment), 0.064 µM; in data set [5] it was 13.6 µM. This compound returned a Cl in [3] (IV 1.0 mg/kg) of 10.5 mL/min/kg. The “T1/2 of LMS, M” value in data set [6] (mouse liver microsome 0.5 mg protein/mL, 1 μM, NADPH) is 1.98 h. Further, the “T1/2 of LMS, H” value in data set [7] was 2.32 h.
On to `O=C(O)Cc1ccccc1Nc1c(Cl)cccc1Cl` [Ref. 5, Diclofenac], for which the results for the CLint scaled at 1 μM (in data set [8]; in “in vitro [9]”; in the data set “in vitro [11]”) were 185 mL/min/kg, less than 13.8 mL/min/kg and less than 13 mL/min/kg, respectively. The half-life at 1 μM in the data set “in vitro [4]” is 0.112 h; in “in vitro [9]” it was greater than 2.42 h; in the data set “in vitro [11]”, greater than 2.42 h. Further, the microsomal CLint at 1 μM was 206 µL/min/mg in the data set “in vitro [4]”, less than 9.6 µL/min/mg in the data set “in vitro [9]” and less than 9.6 µL/min/mg in the data set “in vitro [11]”. Besides, the “CLint (liver) R” value in data set [10] was 233.1 mL/min/kg.
